According to PubChem BioAssay AID1963973 (Molecular Pharmacology Branch, DTP, NCI, 2024):

Tested on: 883617-216-R-J1-PDC tumor spheroids, viability
Test: Anticancer human tumor 883617-216-R-J1-PDC patient-derived bladder carcinoma cell line growth inhibition [PI3K]
Details: spheroids with HUVEC and MSC; for IC50: curve of first compound; for viability, T/C: stronger effect = lower value
How it was run: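 Targeted small molecules plus PI3K inhibitors, half-log dose series from Cmax (default top 10 microM), were applied to heterotypic spheroids of cancer cells with HUVEC and MSCs. Viability indicated growth inhibition.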

[1] = second compound 0.0316 µM, first compound 0.0316 µM
[2] = second compound 0.0316 µM, first compound 0.1 µM
[3] = second compound 0.1 µM, first compound 0.0316 µM
[4] = second compound 0.1 µM, first compound 0.1 µM
[5] = second compound 0.316 µM, first compound 0.0316 µM
[6] = second compound 0.316 µM, first compound 0.1 µM
[7] = second compound 1 µM, first compound 0.0316 µM
[8] = second compound 1 µM, first compound 0.1 µM
[9] = second compound 3.16 µM, first compound 0.0316 µM
[10] = second compound 3.16 µM, first compound 0.1 µM
[11] = second compound 10 µM, first compound 0.0316 µM
[12] = second compound 10 µM, first compound 0.1 µM
[13] = second compound 0.0316 µM, first compound 0.316 µM
[14] = second compound 0.0316 µM, first compound 1 µM
[15] = second compound 0.0316 µM, first compound 3.16 µM
[16] = second compound 0.0316 µM, first compound 10 µM
[17] = second compound 0.1 µM, first compound 0.316 µM
[18] = second compound 0.1 µM, first compound 1 µM
[19] = second compound 0.1 µM, first compound 3.16 µM
[20] = second compound 0.1 µM, first compound 10 µM
[21] = second compound 0.316 µM, first compound 0.316 µM
[22] = second compound 0.316 µM, first compound 1 µM
[23] = second compound 0.316 µM, first compound 3.16 µM
[24] = second compound 0.316 µM, first compound 10 µM
[25] = second compound 1 µM, first compound 0.316 µM
[26] = second compound 1 µM, first compound 1 µM
[27] = second compound 1 µM, first compound 3.16 µM
[28] = second compound 1 µM, first compound 10 µM
[29] = second compound 3.16 µM, first compound 0.316 µM
[30] = second compound 3.16 µM, first compound 1 µM
[31] = second compound 3.16 µM, first compound 3.16 µM
[32] = second compound 3.16 µM, first compound 10 µM
[33] = second compound 10 µM, first compound 0.316 µM
[34] = second compound 10 µM, first compound 1 µM
[35] = second compound 10 µM, first compound 3.16 µM
[36] = second compound 10 µM, first compound 10 µM
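Also: spheroids exposed to agents for 7 days before the viability read.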

Compound: CC(=O)c1c(C)c2cnc(Nc3ccc(N4CCNCC4)cn3)nc2n(C2CCCC2)c1=O + Cc1nc(NC(=O)N2CCCC2C(N)=O)sc1-c1ccnc(C(C)(C)C(F)(F)F)c1
- IC50 (second compound 0.0316 µM): > 100 nM
- IC50 (second compound 0.1 µM): 23.7 nM
- IC50 (second compound 0.316 µM): < 0.316 nM
- IC50 (second compound 1 µM): < 0.316 nM
- IC50 (second compound 3.16 µM): < 0.316 nM
- IC50 (second compound 10 µM): < 0.316 nM
- viability, T/C (second compound 0.0316 µM, first compound 0.000316 µM): 81%
- viability, T/C (second compound 0.0316 µM, first compound 0.001 µM): 70.3%
- viability, T/C (second compound 0.0316 µM, first compound 0.00316 µM): 82.5%
- viability, T/C (second compound 0.0316 µM, first compound 0.01 µM): 68.1%
- viability, T/C [1]: 58.7%
- viability, T/C [2]: 50.3%
- viability, T/C (second compound 0.1 µM, first compound 0.000316 µM): 65.4%
- viability, T/C (second compound 0.1 µM, first compound 0.001 µM): 63.5%
- viability, T/C (second compound 0.1 µM, first compound 0.00316 µM): 62.8%
- viability, T/C (second compound 0.1 µM, first compound 0.01 µM): 57.8%
- viability, T/C [3]: 47.4%
- viability, T/C [4]: 37.6%
- viability, T/C (second compound 0.316 µM, first compound 0.000316 µM): 47.7%
- viability, T/C (second compound 0.316 µM, first compound 0.001 µM): 43.8%
- viability, T/C (second compound 0.316 µM, first compound 0.00316 µM): 33%
- viability, T/C (second compound 0.316 µM, first compound 0.01 µM): 43.2%
- viability, T/C [5]: 34.5%
- viability, T/C [6]: 26.3%
- viability, T/C (second compound 1 µM, first compound 0.000316 µM): 26.7%
- viability, T/C (second compound 1 µM, first compound 0.001 µM): 31.5%
- viability, T/C (second compound 1 µM, first compound 0.00316 µM): 25.7%
- viability, T/C (second compound 1 µM, first compound 0.01 µM): 23.3%
- viability, T/C [7]: 21.1%
- viability, T/C [8]: 17.2%
- viability, T/C (second compound 3.16 µM, first compound 0.000316 µM): 12.9%
- viability, T/C (second compound 3.16 µM, first compound 0.001 µM): 11.8%
- viability, T/C (second compound 3.16 µM, first compound 0.00316 µM): 13.6%
- viability, T/C (second compound 3.16 µM, first compound 0.01 µM): 14.4%
- viability, T/C [9]: 11.7%
- viability, T/C [10]: 11.6%
- viability, T/C (second compound 10 µM, first compound 0.000316 µM): 8.2%
- viability, T/C (second compound 10 µM, first compound 0.001 µM): 6.55%
- viability, T/C (second compound 10 µM, first compound 0.00316 µM): 6.27%
- viability, T/C (second compound 10 µM, first compound 0.01 µM): 7.44%
- viability, T/C [11]: 6.18%
- viability, T/C [12]: 5.86%

Compound: C[C@@H](NC(=O)c1ncnc(N)c1Cl)c1ncc(C(=O)Nc2cc(C(F)(F)F)c(Cl)cn2)s1 + CC(Nc1ncnc2nc[nH]c12)c1cc2cccc(Cl)c2c(=O)n1-c1ccccc1
- IC50 (second compound 0.0316 µM): > 10000 nM
- IC50 (second compound 0.1 µM): > 10000 nM
- IC50 (second compound 0.316 µM): > 10000 nM
- IC50 (second compound 1 µM): > 10000 nM
- IC50 (second compound 3.16 µM): > 10000 nM
- IC50 (second compound 10 µM): < 31.6 nM
- viability, T/C [1]: 88.8%
- viability, T/C [2]: 87.1%
- viability, T/C [13]: 81.4%
- viability, T/C [14]: 99.8%
- viability, T/C [15]: 78.1%
- viability, T/C [16]: 64.8%
- viability, T/C [3]: 90%
- viability, T/C [4]: 85.6%
- viability, T/C [17]: 91.3%
- viability, T/C [18]: 91.8%
- viability, T/C [19]: 81.2%
- viability, T/C [20]: 58.2%
- viability, T/C [5]: 85.5%
- viability, T/C [6]: 96.2%
- viability, T/C [21]: 90.3%
- viability, T/C [22]: 74%
- viability, T/C [23]: 78.4%
- viability, T/C [24]: 76.2%
- viability, T/C [7]: 80.3%
- viability, T/C [8]: 82.1%
- viability, T/C [25]: 90.4%
- viability, T/C [26]: 74.4%
- viability, T/C [27]: 75.8%
- viability, T/C [28]: 50.1%
- viability, T/C [9]: 58.3%
- viability, T/C [10]: 56.5%
- viability, T/C [29]: 60%
- viability, T/C [30]: 58.2%
- viability, T/C [31]: 65.2%
- viability, T/C [32]: 51.7%
- viability, T/C [11]: 36.9%
- viability, T/C [12]: 43.9%
- viability, T/C [33]: 45.8%
- viability, T/C [34]: 44.6%
- viability, T/C [35]: 55.7%
- viability, T/C [36]: 40.4%

Compound: Cn1ncc(Cl)c1-c1cc(C(=O)NC(CN)Cc2cccc(F)c2)sc1Cl (stereo unspecified) + CC(Nc1ncnc2nc[nH]c12)c1cc2cccc(Cl)c2c(=O)n1-c1ccccc1
- IC50 (second compound 0.0316 µM): 518 nM
- IC50 (second compound 0.1 µM): 443 nM
- IC50 (second compound 0.316 µM): 539 nM
- IC50 (second compound 1 µM): 394 nM
- IC50 (second compound 3.16 µM): 257 nM
- IC50 (second compound 10 µM): < 31.6 nM
- viability, T/C [1]: 90.3%
- viability, T/C [2]: 88.7%
- viability, T/C [13]: 58.2%
- viability, T/C [14]: 36%
- viability, T/C [15]: 13.7%
- viability, T/C [16]: 6.6%
- viability, T/C [3]: 74.9%
- viability, T/C [4]: 83.1%
- viability, T/C [17]: 55.2%
- viability, T/C [18]: 30.2%
- viability, T/C [19]: 12.4%
- viability, T/C [20]: 6.85%
- viability, T/C [5]: 89%
- viability, T/C [6]: 89%
- viability, T/C [21]: 63.1%
- viability, T/C [22]: 33.9%
- viability, T/C [23]: 10.6%
- viability, T/C [24]: 7.26%
- viability, T/C [7]: 84.4%
- viability, T/C [8]: 67.1%
- viability, T/C [25]: 57.9%
- viability, T/C [26]: 31.8%
- viability, T/C [27]: 11.7%
- viability, T/C [28]: 6.93%
- viability, T/C [9]: 86.4%
- viability, T/C [10]: 70.1%
- viability, T/C [29]: 44.6%
- viability, T/C [30]: 25.6%
- viability, T/C [31]: 13.2%
- viability, T/C [32]: 5.57%
- viability, T/C [11]: 50.3%
- viability, T/C [12]: 40.3%
- viability, T/C [33]: 37.1%
- viability, T/C [34]: 23%
- viability, T/C [35]: 10.5%
- viability, T/C [36]: 5.07%
